Experimental data published in patent EP3871665B1, “INHIBITORS OF RNA-BINDING PROTEINS AS ANTI-CANCER DRUGS” (priority 2020, dated 2021).

Key:
[1] = test system: ES-2 IGF2BP1-KO cells re-expressing GFP-IGF2BP1; test: 2D growth / proliferation (cell confluence, IncuCyte S3), cells re-expressing wild type IGF2BP1; format: cell-based
Description: (§1) Statistical significance was analyzed by logrank test. […] Modified cysteines are highlighted in bold and upper position. […] Right: Local atomic fluctuations around cysteine residues. […] (A-C) RNA-dependent protein-protein association assay. […] EV (1) indicates mock-transfected controls. Representative Western (A) and Northern (C) blots are shown. P, pulldown; I, input. […] A representative Western blot analysis is shown in (C). […] Six mice were analyzed per condition. Error bars indicate standard deviation. […] Error bars indicate standard deviation of three analyses. […] DMSO-treated cells were used for comparisons. […] (*) p < 0.05, (**) p < 0.01, (***) p < 0.001. […] Data represent the mean ± SD (n = 6). […] (**) p < 0.01.
To probe if the identified residues are druggable targets, a search for chemical probes with exquisite chemo- and regioselectivity to cysteine residues was performed and their ability to target IGF2BP1's Cys253 and Cys336 was tested, whilst functioning as inhibitors. […] Both probes are known to covalently modify cysteine residues in a highly site-specific manner. […] These probes were then used in ES-2 IGF2BP1 KO cells, re-expressing either the wild type version of IGF2BP1 or the C253/336A mutant. The initial assay was set to observe if the probes influence the 2D growth, determined here as cell density, of ES-2 cells in a IGF2BP1-Cys253/336-dependent manner. IC50 values were determined by measuring the cell viability or cell confluence of cells incubated with increasing concentrations of J2 and J5.

[2] = test system: ES-2 IGF2BP1-KO cells re-expressing GFP-IGF2BP1C253/336A; test: 2D growth / proliferation (cell confluence, IncuCyte S3), cells re-expressing C253/336A mutant; format: cell-based
Description: as §1
(§2) To probe if the identified residues are druggable targets, a search for chemical probes with exquisite chemo- and regioselectivity to cysteine residues was performed and their ability to target IGF2BP1's Cys253 and Cys336 was tested, whilst functioning as inhibitors. […] Both probes are known to covalently modify cysteine residues in a highly site-specific manner. […] The initial assay was set to observe if the probes influence the 2D growth, determined here as cell density, of ES-2 cells in a IGF2BP1-Cys253/336-dependent manner. IC50 values were determined by measuring the cell viability or cell confluence of cells incubated with increasing concentrations of J2 and J5.

[3] = Drug-likeness assessment / solubility in the assays; format: physicochemical
[4] = test system: ES-2 IGF2BP1-KO cells re-expressing the wild type GFP-IGF2BP1; test: Cell viability (CellTiter Glo), cells re-expressing wild type IGF2BP1; format: cell-based
Description: as §1
To probe if the identified residues are druggable targets, a search for chemical probes with exquisite chemo- and regioselectivity to cysteine residues was performed and their ability to target IGF2BP1's Cys253 and Cys336 was tested, whilst functioning as inhibitors. […] The initial assay was set to observe if the probes influence the 2D growth, determined here as cell density, of ES-2 cells in a IGF2BP1-Cys253/336-dependent manner. IC50 values were determined by measuring the cell viability or cell confluence of cells incubated with increasing concentrations of J2 and J5.

[5] = test system: ES-2 IGF2BP1-KO cells re-expressing the GFP-IGF2BP1C253/336A mutant; test: Cell viability (CellTiter Glo), cells re-expressing C253/336A mutant; format: cell-based; details: cell viability 72h, read-out: IC50C253/336A
Description: as §1, §2

[6] = test system: panel of cancer cell lines; test: Cell proliferation (IncuCyte S3 confluence) in a panel of cancer cell lines; format: cell-based; details: 72h
[7] = test system: ES-2 IGF2BP1-KO cells re-expressing GFP-IGF2BP1C253/336A; test: Spheroid Matrigel invasion assay, cells re-expressing C253/336A mutant; format: cell-based; details: up to 6 µM; 24h post-treatment
[8] = test system: tumors bearing ES-2 cells re-expressing the C253/336A mutant; test: Xenograft tumor growth, ES-2 cells re-expressing C253/336A mutant; format: in vivo, female SCID mice; details: 0.1 mg/kg daily intraperitoneally
[9] = test system: xenografts bearing ES-2 cells re-expressing the wild-type IGF2BP1 (GFP-IGF2BP1); details: 0.1 mg/kg daily intraperitoneally; GFP-IGF2BP1 tumors
IGF2BP1 = target: T1, IGF2BP1 (Homo sapiens, UniProt Q9NZI8); test: Site-specific protein modification (Cys-to-Dha conversion), LC-MS/MS readout; format: biochemical
T1 construct: made in house
Description: as §1
A multiple-Cys-containing RNA-binding protein with a recognized role in cancer is selected, for example and not limited to, the Insulin-like growth factor 2 mRNA binding protein 1 (IGF2BP1). It is then expressed in bacteria (not limited to), purified and submitted to site-specific protein modification reactions in vitro using cysteine-directed probes (Cys-to-Dha conversion), for example and not limited to, the compound 2,5 dibromohexanediamide (1). The reactions are performed in mild conditions, PBS buffer pH 8.0 for 1 h at 37∘C, using increasing equivalents of 1. The resulting reaction is then purified with a spin column and submitted to trypsin digestion followed by LC-MS/MS using standard protocols. The identification of Dha-modified peptides is performed by adding the corresponding mass shift of 33.9878 m/z (Dha) as a post-translational modification in the global search for modifications. The Dha conversion of specific cysteine residues is located within the primary sequence of the protein of interest (POI) to uncover preferentially modified cysteine residues.

T1 sequence (Q9NZI8 whole entry): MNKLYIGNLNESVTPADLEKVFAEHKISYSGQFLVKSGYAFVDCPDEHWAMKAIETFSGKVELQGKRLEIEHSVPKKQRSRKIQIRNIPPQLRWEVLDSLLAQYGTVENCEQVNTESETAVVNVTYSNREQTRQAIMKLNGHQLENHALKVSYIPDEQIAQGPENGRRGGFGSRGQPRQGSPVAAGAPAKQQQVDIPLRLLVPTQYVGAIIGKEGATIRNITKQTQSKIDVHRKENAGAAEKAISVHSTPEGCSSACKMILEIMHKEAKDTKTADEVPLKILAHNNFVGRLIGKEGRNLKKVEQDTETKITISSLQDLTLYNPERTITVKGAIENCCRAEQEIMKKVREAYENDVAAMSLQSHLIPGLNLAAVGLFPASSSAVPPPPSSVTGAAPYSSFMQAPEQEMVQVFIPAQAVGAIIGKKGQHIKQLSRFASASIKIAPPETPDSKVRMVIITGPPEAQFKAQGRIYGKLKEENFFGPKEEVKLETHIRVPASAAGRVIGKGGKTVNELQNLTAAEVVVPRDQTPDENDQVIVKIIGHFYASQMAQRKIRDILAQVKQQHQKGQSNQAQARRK

equivalents at which Cys253 was modified (IGF2BP1; PBS buffer pH 8.0, 1 h, 37°C) [eq]	equivalents at which Cys336 was modified (IGF2BP1; PBS buffer pH 8.0, 1 h, 37°C) [eq]	equivalents at which Cys336 was modified, in some reactions (IGF2BP1; in some reactions) [eq]	equivalents at which almost all cysteines (exception Cys110) were modified (IGF2BP1; in vitro)	SMILES	growth of ES-2 cells ([1]; 1µM, cells re-expressing the wild type protein)	IC50 ([1]; cells expressing wild type IGF2BP1, confluence at 72h, DMSO = 100% growth) [nM]	selective cytoreductive effect ([1]; wild type vs C253/336A mutant cells) [fold]	growth of cells ([2]; 1µM, cells expressing the C253/336A mutant)	IC50 ([2]; Homo sapiens, ES-2 cells expressing the C253/336A mutant, confluence at 72h) [nM]	solubility [3]	IC50 ([4]; cell viability 72h, CellTiter Glo) [nM]	selectivity to ES-2 cells re-expressing the wild type IGF2BP1 ([4]; wild type vs C253/336A) [fold]	IC50 [5] [nM]	potency in a panel of cancer cell lines [6]	invasion [7]	anti-tumor effect (tumor volume, tumor mass) [8]	anti-tumor effect (tumor volume, tumor mass) [9]
–	–	–	–	O=C(/C=C/C(=O)c1ccccc1)NCCNc1ccc([N+](=O)[O-])c2nonc12 [J2, (E)-N-(2-((7-nitrobenzo[c][1,2,5]oxadiazol-4-yl)amino)ethyl)-4-oxo-4-phenylbut-2-enamide]	strong impairment	840	2	no substantial impact	2200	solubility problems	–	–	–	–	–	–	–
–	–	–	–	CCNC(=O)/C=C/C(=O)c1ccccc1 [J5, (E)-N-ethyl-4-oxo-4-phenylbut-2-enamide]	–	–	–	–	–	much higher solubility	970	1.8	1750	potency as anti-cancer drug in all of them	unchallenged invasion	absolutely no effect	strong anti-tumor effect
200	300	200	above 500 eq	NC(=O)C(Br)CCC(Br)C(N)=O (stereo not drawn) [compound 1, 2,5 dibromohexanediamide]	–	–	–	–	–	–	–	–	–	–	–	–	–
